These results are taken from PMC7306133 (Diabetes, 2020).

Where a SMILES comes first, the peptide text is derived from it. Where no end group is shown, it is not given here.

The subject of experiment [1] is CD4+ T cells in peripheral blood of subjects with T1D. As to the kind of experiment: Ex vivo tetramer analysis of T-cell frequency. The format is cell-based, human. Particulars: DR0401 tetramers, ex vivo enrichment.
Experiment [2] has as its system HIP-specific T-cell clones. As to the kind of experiment: Proliferation of HIP-specific T-cell clones in response to human islet fractions. Particulars: label = specificity of the clone; compared with the unpulsed control condition. The format is cell-based.
Experiment [3] has as its target HLA-DRB1*04:01 (DR0401) protein (Homo sapiens, UniProt P01903+P01911, A100K/A169T/F76Y/I96L/K127E/L162R/M171V/N62H/P40V/Q125Y/R42H/S133A/S149N/S66Y/V115G/V209L/W38E). The experiment is described as follows: DR0401 peptide binding competition assay.

Regarding `CC[C@H](C)[C@H](N)C(=O)N[C@@H](CS)C(=O)N[C@@H](CO)C(=O)N[C@@H](CC(C)C)C(=O)N[C@@H](Cc1ccc(O)cc1)C(=O)N[C@@H](CCC(N)=O)C(=O)N[C@@H](CC(C)C)C(=O)N[C@@H](CCC(=O)O)C(=O)N[C@@H](Cc1ccccc1)C(=O)N[C@H](C(=O)N[C@@H](CC(N)=O)C(=O)N[C@@H](CCC(N)=O)C(=O)N[C@@H](Cc1c[nH]cn1)C(=O)N[C@@H](CC(C)C)C(=O)N[C@@H](CS)C(=O)NCC(=O)O)C(C)C` [HIP-4.4] (H-ICSLYQLEFVNQHLCG-OH; N-terminus and C-terminus assumed), in experiment [1], the “Average frequency of HIP-reactive T cells” value is recorded as 8 cells per million CD4+ T cells. In experiment [2], the “Proliferation of the HIP-reactive clone in response to human islets (in words)” value is on record as “not above the unpulsed control condition”.

Usually IC50 stands for the concentration at which inhibition is half-maximal. High values mean weaker potency, low ones greater potency. The compound HLVEALYLEELVARSE [HIP-4.2] displayed an IC50 in experiment [3] of 0.44 µM.

Regarding SLQKRGIVEELVARSE [HIP-4.18], in experiment [3], the IC50 stood at 1.8 µM.

As for VCGERGFFEELVARSE [HIP-4.1], the IC50 in experiment [3] is 2.8 µM.

For QPLALEGSALSSQHQA [HIP-4.40], the IC50 in experiment [3] is 2.4 µM.

Consider CSLYQLENSVPHFSDE [HIP-4.39], for which the concentration for half-maximal inhibition (IC50) in experiment [3] came to 0.24 µM.
